Measurements: article PMC4962012, “Pretrichodermamides D–F from a Marine Algicolous Fungus Penicillium sp. KMM 4672” (Marine Drugs, 2016)

Tests used:
[1] = test system: CD-I mouse splenocytes; experiment: Cytotoxicity against mouse splenocytes; format: cell-based; conditions: non-malignant murine splenocytes
Experimental: (§1) The in vitro cytotoxicity of individual substances was evaluated using the MTT (3-(4,5-dimethylthiazol-2-yl)-2,5-diphenyltetrazolium bromide) assay, which was performed as previously described. Cytotoxicity against CD-I mouse splenocytes was determined according to Freshney. Docetaxel was used as a reference substance.

[2] = test system: CD-I mouse erythrocytes; experiment: Hemolytic activity; format: cell-based
Experimental: The hemolytic activity was evaluated using CD-I mouse erythrocytes as previously described.

[3] = MTT cytotoxicity assay, LNCaP cells; format: cell-based; conditions: human, LNCaP prostate cancer cells
Experimental: (§2) The human prostate cancer cells lines 22Rv1, PC-3, and LNCaP were purchased from ATCC. Cell lines were cultured according to the manufacturers instructions in 10% FBS/RPMI media (Invitrogen) with (for LNCaP) or without (for 22Rv1 and PC-3) 1 mM sodium pyruvate (Invitrogen). Cells were continuously kept in culture for a maximum of 3 months and were routinely inspected microscopically for stable phenotype and regularly checked for contamination with mycoplasma. Cell line authentication was performed by DSMZ (Braunschweig, Germany) using highly polymorphic short tandem repeat loci.
as §1

[4] = MTT cytotoxicity assay, 22Rv1 cells; format: cell-based; conditions: human, 22Rv1 prostate cancer cells
Experimental: as §2, §1

[5] = test system: a number of different cancer cells; set-up: method as in PMID 26039736; conditions: up to 10 µM; cited from earlier work
[6] = test system: human prostate cancer 22Rv1 cells; experiment: Apoptosis induction analysis (flow cytometry, PI staining, sub-G1 peak); format: cell-based; conditions: treatment with 1 µM for 48 h
Experimental: as §2
The cell cycle distribution was analyzed by flow cytometry using PI staining as described before with slight modifications. In brief, cells were pre-incubated overnight in 6-well plates (2 × 10^5 cells/well in 2 mL/well). The medium was changed to fresh medium containing different concentrations of the substances. After 48 h of treatment, cells were harvested with a trypsin-EDTA solution, fixed with 70% EtOH, stained, and analyzed by FACS. The results were quantitatively analyzed using Cell Quest Pro software (Version 5.2.1., BD Bioscience, Bedford, MA, USA). Cells appeared at sub-G1 peak were assumed as apoptotic.

[7] = MTT cytotoxicity assay, PC-3 cells; format: cell-based; conditions: human, PC-3 prostate cancer cells
Experimental: as §2, §1

| SMILES | ED50 (cytotoxicity for splenocytes) [1] | hemolytic activity ([2]; murine erythrocytes, up to 100 µM) | ED50 (erythrocytes) ([2]; non-malignant murine erythrocytes) | IC50 [3] | IC50 [4] | cytotoxic effect against a number of different cancer cells [5] | apoptosis [6] | IC50 [7] |
| --- | --- | --- | --- | --- | --- | --- | --- | --- |
| COc1ccc(C2SSC34CC5(O)C(Cl)C=CC(O)C5ON3C(=O)C2N(C)C4=O)c(O)c1OC (centres unmarked) [compound 5, N-methylpretrichodermamide B] | 62100 nM | did not show hemolitic activity | > 100000 nM | 1760 nM | 510 nM | did not show any cytotoxic effect | 31.3% ± 8.2 | 5110 nM |
| CC(=O)O[C@@]12CO[C@@H]1C[C@H](O)[C@@]1(C)C(=O)[C@H](O)C3=C(C)[C@@H](OC(=O)[C@H](O)[C@@H](NC(=O)OC(C)(C)C)c4ccccc4)C[C@@](O)([C@@H](OC(=O)c4ccccc4)[C@H]21)C3(C)C [docetaxel, reference compound] | – | – | – | 4 nM | 13 nM | – | – | 15 nM |
